≈ marks a conversion by molar mass, not a printed value. Read-outs that look alike come from different tables or passages of the source.
Tests used:
[1] = Solubility in refined meadowfoam seed oil (HPLC); type: physicochemical; settings: oil or lipid, thermodynamic from solid, cooled to room temperature overnight
Description: Typical retention times were 7–9 min for the thioureas. Samples were weighed accurately (about 0.1 g) into 1.00 g of refined meadowfoam seed oil and heated to temperature (either 30° C. or 50° C.) for 4 h with occasional shaking. The samples were cooled to room temperature overnight, centrifuged and 0.3 g of the supernatant oil was removed and diluted with 1 ml CHCl3 for testing.

[2] = Oxidative Stability by Rotating Pressure Vessel (RBOT) of refined meadowfoam seed oil plus thiourea compounds
From the text: Another presently preferred method of determining oxidative stability of lipids and oils employs the Oxidative Stability by Rotating Pressure Vessel (RBOT) test. In this test, oxidative stability, determined according to the ASTM D2272-98 test method (ASTM, 2001, “Standard Test Method for Oxidation Stability of Steam Turbine Oils by Rotating Pressure Vessel,” in Book of Standards, Vol. 05.01., American Society for Testing and Materials, West Conshohocken, Pa.), measures the time for oxygen pressure to decrease in a closed stainless steel vessel containing a lipid or oil when heated with a copper coil catalyst. Oxygen taken up by the lipid or oil during the reaction is an indication of oil degradation.
In these experiments, Oxidative Stability by Rotating Pressure Vessel (RBOT) tests were performed with different 3-methoxybenzyl thiourea compounds synthesized in Example 3 that were mixed in different quantities with different mono- and polyunsaturated vegetable oils. Hexane was used to clean and store the copper coils, but all other aspects of the Oxidative Stability by Rotating Pressure Vessel (RBOT) test were the same as in the standard ASTM D2272–98 test method (ASTM, 2001, “Standard Test Method for Oxidation Stability of Steam Turbine Oils by Rotating Pressure Vessel,” in Book of Standards, Vol. 05.01., American Society for Testing and Materials, West Conshohocken, Pa.).

[3] = system: Brine Shrimp (Artemia Salina); assay: in vivo; settings: as Table 7 shows
Description: (§1) Brine shrimp eggs (Artemia salina) were obtained from Brine Shrimp Direct, Ogden, Utah and stored at 10° C. until used. Eggs (400 mg) were added to 1 l of deionized water containing 40 g of sea salts (Sigma Chemical Co., St. Louis, Mo.).
(§2) Serial dilutions were performed in 100 μl of seawater in triplicate in the wells of a 96-well microplate to give appropriate concentrations. Control wells for both water and DMSO were included with each experiment. […] The number of non-motile, and the total number of, naupli were counted in each well using a binocular microscope (10×).

in vivo = settings: Artemia salina (brine shrimp), in vivo, other: exposure in seawater in microplate wells
Description: as §1, §2

[4] = Behaviour on addition of water to DMSO solution (sample preparation); type: physicochemical; settings: dissolved in 50 μl DMSO, water added to make 1 mg/ml
Description: Test compounds (1–2 mg) were originally made up at a concentration of 1 mg/ml in artificial seawater, except for water insoluble compounds, which were dissolved in 50 μl of dimethyl sulfoxide (DMSO) prior to adding enough water to make a 1 mg/ml solution. Serial dilutions were performed in 100 μl of seawater in triplicate in the wells of a 96-well microplate to give appropriate concentrations. Control wells for both water and DMSO were included with each experiment. A 100 μl solution of naupli (10–30) was added to each well, and the covered plate was incubated for 24 h at 27° C. The number of non-motile, and the total number of, naupli were counted in each well using a binocular microscope (10×). LC50 values were then calculated by Probit analysis (Finney, D. J., 1971, “Probit Analysis,” 3rd Ed.; University Press: Cambridge [Eng.]).

[5] = Decomposition temperature by differential scanning calorimetry; type: physicochemical; settings: DSC, onset of decrease in slope of temperature-heat flow curve; unit not given (scans in ° C.)
Description: A dual cell Perkin Elmer differential scanning calorimeter (PE DSC 7, Norwalk, Conn.) was used to determine the thermal transitions of the compounds. All scans were carried out from 30° C. to 200° C. at a heating and cooling rate of 10° C./minute and 40° C./min, respectively, except for 1-(3-methoxybenzyl)-3-(1-propenyl) thiourea, for which the scans were carried out from 0° C. to 200° C. at a heating rate of 10° C./min, and 1-(3-methoxybenzyl)-3-octadecyl thiourea, for which both the heating and cooling rates were 10° C./min. 1,3-di(3-methoxybenzyl) thiourea and 1-(3-methoxybenzyl)-3-dodecyl thiourea were heated to 300° C., and 1-(3-methoxybenzyl)-3-(4-methoxybenzoyl) thiourea was heated to 250° C. to determine the decomposition temperature. The decomposition temperature was taken as the onset of a decrease in the slope of the temperature-heat flow DSC curve. The first heating curve was recorded in all cases, and liquid nitrogen was used to quench the samples after the first heating.

[6] = UVB and UVA molar absorptivities in chloroform; type: physicochemical; settings: 0.01 mg/ml in chloroform
Description: The compounds synthesized in Example 3 were tested to determine their ability to absorb […] UVA light. UV spectra of quantitatively weighed and diluted samples (0.01 mg/ml) in chloroform were scanned from 244–450 nm at 240 nm/min on a Beckman DU 640 spectrophotometer (Beckman Coulter, Inc., Fullerton, Calif.). Amax in the 280–320 nm range was determined and converted to molar absorptivity for the UVB region, and Amax in the 320–400 nm range was determined and converted to molar absorptivity for the UVA region.

solubility at 4 h ([1]; heated to 30° C. for 4 h, read-out: Solubility at 30° C.): 3070 µg/mL (≈ 9.95 mM)
solubility at 4 h ([1]; heated to 50° C. for 4 h, read-out: Solubility at 50° C.): 2490 µg/mL (≈ 8.07 mM)
Oxidative Stability (RBOT) ([2]; Refined Meadowfoam Seed Oil plus 0.1% compound): 43 min
Oxidative stability in the RBOT test, in words ([2]; addition of 0.1% compound): doubled
behaviour upon the addition of water [4]: precipitated out of solution
Decomposition Temperature [5]: > 200 °C
UVBMAX Molar Absorptivity ([6]; Amax in 280–320 nm): 2999
UVAMAX Molar Absorptivity ([6]; Amax in 320–400 nm): 0.0
SMILES: CCCCCCCCNC(=S)NCc1cccc(OC)c1 [1-(3-methoxybenzyl)-3-octyl thiourea]
toxicity against brine shrimp, in words [3]: low toxicity
LC50 at 24 h (in vivo): 240 µg/mL (≈ 0.778 mM)

Source: US7169815B2, “3-methoxybenzyl thiourea derivatives and improved lipid compositions containing same” (The United States of America as represented by the …, priority 2000, dated 2007)
